Measurements taken from patent US6265450A, “Anti-stress composition” (Suntory Limited, priority 1995, dated 2001).
Read-outs that look alike come from different tables or passages of the source.

Columns and labels:
antibody production = details: cited from earlier work
[1] = cited from earlier work
cancer cell = details: cited from earlier work
P815 mastocytoma = assay: Effect of restraint stress on promotion of cancer metastasis (transplanted nodes on liver surface); assay type: in vivo, male DBA/2 mice; details: Roche synthetic astaxanthin, 1 mg/kg by gavage three times in MCT; 16 days after transplantation; FIG. 7
Experimental: 7 week old, male DBA/2 mice were purchased from Japan Clea Co., Ltd., and after housing on a preliminary basis for 1 week in a specific pathogen free (SPF) atmosphere, the animals were used in the experiment at age 8 weeks.
The experimental mice were divided into three groups consisting of a restraint stress non-loaded control group (8 mice), a restraint stress loaded control group (8 mice) and a restraint stress loaded astaxanthin group (9 mice). Astaxanthin was administered orally by gavage three times on the day before restraint, immediately after the start of restraint and the day after the start of restraint at a dose of 1 mg/kg (MCT solution) each. Roche astaxanthin, a synthetic form of astaxanthin, was used for the test substance, while the control groups were orally administered MCT only three times by gavage. Restraint stress loading was performed under the same conditions as Example 1.
Mastocytoma subcultured in the abdominal cavities of DBA/2 mice in this laboratory was used for the P815 mastocytoma (DBA/2 mouse cutaneous mastocytoma). 1×10^4 cells/animal were transplanted into the caudal vein of each animal. […] The liver was excised 16 days after transplantation and after Vaughn's fixation, the number of transplanted nodes on the liver surface was measured.

thymus weight = assay: Effect of restraint stress on decreased thymus weight; assay type: in vivo, male C57BL/6 mice; details: Astaxanthin (Roche) in MCT; for minimal effective dose: Mus musculus, po
Description: Six week old, male C57BL/6 mice were purchased from Japan Clea Co., Ltd., and after preliminarily keeping for 1 week in an SPF (specific pathogen free) environment, were used in the experiment at age 7 weeks.
The mice were divided into a restrained group (16 mice) and a non-restrained group (5 mice). The unrestrained group was used as a control group. The restrained group was further divided into 4 groups of 4 mice each, and designated as the restrained control group, vitamin E group, β-carotene group and astaxanthin group. The restrained groups were restrained for 20 hours in metal restraint cages under conditions of minimal body movement and access to drinking water to induce restraint stress.
ASTAX 5000 manufactured by Itano Refrigated Food Co., Ltd. (containing 3.57% astaxanthin diester and 1.53% astaxanthin monoester), extracted and purified from krill, was used for astaxanthin. ASTAX 5000 was dissolved in medium chain fatty acid triglyceride (MCT) to a concentration of 100 mg/10 ml as astaxanthin content and used as the test substance solution. Vitamin E and β-carotene were dissolved in MCT, and MCT only was administered to the control group. The test substances were given orally three times on the day before restraint, immediately after restraint, and on the day after restraint at a dose of 100 mg/kg, for each test substance.
The mice were sacrificed by dislocation of the cervical vertebra 48 hours after the start of restraint. The thymus gland was excised and weighed.
Astaxanthin (Roche) was dissolved in MCT to astaxanthin concentrations of 0.04 mg/10 ml, 0.2 mg/10 ml, 1.0 mg/10 ml and 5.0 mg/10 ml to prepare the test substance solutions.
Thymus weight and spleen-origin NK cell activity were measured using the same procedures as described in Examples 1 and 2.

SMILES: CC1=C(/C=C/C(C)=C/C=C/C(C)=C/C=C/C=C(C)/C=C/C=C(C)/C=C/C2=C(C)C(=O)[C@@H](O)CC2(C)C)C(C)(C)C[C@H](O)C1=O [astaxanthin]
- antibody production activity (antibody production): antibody production activity
- oxidation and decomposition in air [1]: easily oxidized and decompose relatively easily in air
- cancer cell growth inhibitory activity (cancer cell): cancer cell growth inhibitory activity
- inhibition of promotion of cancer metastasis caused by stress (P815 mastocytoma): remarkable inhibition of promotion of cancer metastasis
- inhibitory effect on decreases in thymus weight caused by stress loading (thymus weight; 0.04-5.0 mg/10 ml, FIG. 5): dose-dependent inhibitory effects
- minimal effective dose (thymus weight; FIG. 5, read-out: doses at which the effect on decreased thymus weight was significant): ≥ 1 mg/kg
- minimal effective dose (thymus weight; suggested by thymus weight and NK cell activity, read-out: minimum effective dose of the anti-stress effect): ~1 mg/kg
